# Reference: ChEMBL document CHEMBL1201862, “PubChem BioAssay data set” (2004)
# Active and inactive are the calls of the source.
# Assays:
# BJ [1] = assay: cytotoxicity toward BJ-TERT fibroblasts, dose response, cell-based, RAS-independent, luminescence (AID 1933); format: functional; settings: Homo sapiens
# BJ [2] = assay: cells; format: functional, cell-based; settings: Homo sapiens
# BJ [3] = assay: cytotoxicity toward BJ-TERT-LT-ST fibroblasts, dose response, cell-based, RAS-independent, luminescence (AID 1935); format: functional; settings: Homo sapiens;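 also: BJ fibroblasts immortalized with TERT plus LT and ST oncogenes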
# [4] = cytotoxicity toward DRD oncogenic fibroblasts, dose response, cell-based, non-viral oncogenic, luminescence (AID 1934); format: functional; settings: Homo sapiens
# HEK293 = assay: cells; format: functional, cell-based; settings: Homo sapiens
# Genome polyprotein = Genome polyprotein (dengue virus type 2, UniProt P29990); assay: Dengue-2 NS5 methyltransferase inhibitors, primary screen, biochemical, confirmation dose response (AID 588689); format: functional
# Chain of Genome polyprotein (P29990 2492-3391 limits assumed): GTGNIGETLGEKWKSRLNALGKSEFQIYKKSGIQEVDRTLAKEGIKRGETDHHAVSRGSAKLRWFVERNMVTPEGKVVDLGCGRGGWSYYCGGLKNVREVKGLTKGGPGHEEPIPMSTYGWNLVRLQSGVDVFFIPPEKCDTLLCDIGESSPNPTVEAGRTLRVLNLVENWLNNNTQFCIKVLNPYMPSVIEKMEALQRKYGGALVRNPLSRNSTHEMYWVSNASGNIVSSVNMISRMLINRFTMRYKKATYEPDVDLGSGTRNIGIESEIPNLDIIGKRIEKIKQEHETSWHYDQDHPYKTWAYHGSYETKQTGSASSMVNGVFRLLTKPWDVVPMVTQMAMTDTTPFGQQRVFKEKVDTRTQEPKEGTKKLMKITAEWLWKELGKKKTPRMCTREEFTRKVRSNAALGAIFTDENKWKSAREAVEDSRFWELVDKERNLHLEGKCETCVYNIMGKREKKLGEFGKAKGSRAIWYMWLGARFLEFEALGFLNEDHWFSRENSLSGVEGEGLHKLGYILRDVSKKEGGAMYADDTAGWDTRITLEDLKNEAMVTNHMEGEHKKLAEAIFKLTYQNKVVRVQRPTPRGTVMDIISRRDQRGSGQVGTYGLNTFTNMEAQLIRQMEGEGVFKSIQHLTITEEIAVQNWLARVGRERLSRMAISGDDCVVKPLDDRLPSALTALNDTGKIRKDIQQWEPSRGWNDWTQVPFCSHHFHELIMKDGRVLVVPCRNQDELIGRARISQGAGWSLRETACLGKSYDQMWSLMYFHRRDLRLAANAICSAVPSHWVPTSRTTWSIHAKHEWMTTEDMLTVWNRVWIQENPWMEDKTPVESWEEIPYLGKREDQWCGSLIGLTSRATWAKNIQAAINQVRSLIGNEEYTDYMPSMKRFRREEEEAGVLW
# [5] = target: T1, Nuclear receptor subfamily 0 group B member 1 (Homo sapiens, UniProt P51843); assay: Luminescence-based cell-based high throughput dose response assay for inhibitors of the orphan nuclear receptor subfamily 0, group B, member 1 (DAX1; NR0B1). [Related pubchem assays (depositor defined):AID504766, AID504790]; format: functional
# T1 sequence (P51843 whole entry): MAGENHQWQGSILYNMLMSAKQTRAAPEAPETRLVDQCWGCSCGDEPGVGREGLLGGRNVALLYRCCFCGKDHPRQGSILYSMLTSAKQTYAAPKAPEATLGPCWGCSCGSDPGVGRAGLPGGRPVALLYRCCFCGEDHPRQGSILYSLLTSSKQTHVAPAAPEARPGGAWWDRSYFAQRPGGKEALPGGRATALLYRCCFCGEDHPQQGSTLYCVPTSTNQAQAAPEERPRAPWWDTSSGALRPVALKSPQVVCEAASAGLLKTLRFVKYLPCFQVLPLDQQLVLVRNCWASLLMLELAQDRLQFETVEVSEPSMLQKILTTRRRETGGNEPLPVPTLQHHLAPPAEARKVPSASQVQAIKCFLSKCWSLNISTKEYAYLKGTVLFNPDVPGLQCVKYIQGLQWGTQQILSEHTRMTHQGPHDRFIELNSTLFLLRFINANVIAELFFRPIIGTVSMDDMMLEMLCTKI
# [6] = inhibitors of firefly luciferase expression or activity, dose response, H4 neuroglioma cells, luminescence (AID 1990); format: functional, cell-based
# [7] = Luminescence Cell-Based Dose Response HTS to Identify Inhibitors of 5'UTR Stem-Loop Driven Prion Protein mRNA Translation in H4 Neuroglioblastoma Cells. [Related pubchem assays: 1827 (Project Summary), 1813 (Primary HTS)]; format: functional
# [8] = inhibitors of SNCA 5'UTR-driven reporter translation, confirmation, H4 neuroglioma cells, luminescence (AID 1988); format: functional, cell-based
# [9] = inhibitors of HIV Env-driven cell fusion, dose response, cherry-pick (AID 652057); format: functional, cell-based
# [10] = ZM109 Env clade C HIV-1 fusion inhibitors, dose response, HeLa effector, CEM target cells, luciferase, cherry-pick (AID 652058); format: functional, cell-based
# [11] = off-target signal loss in HeLa-CEM21 co-culture – HeLa F-luc CTL cells, cherry-picked, counter-screen for HIV-1 Env fusion inhibitor project, dose response (AID 652040); format: functional, cell-based;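 also: potency for signal decrease marking cytotoxic or nonspecific inhibition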
# [12] = inhibitors of clade B AD8 Env fusion, dose response, cell-based, cherry-pick (AID 652062); format: functional;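 also: luciferase signal from cell-cell fusion driven by HIV-1 clade B AD8 Env; potency is for inhibitors of fusion seen as a drop in luminescence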
# [13] = Luminescence Cell-Based Dose Retest to Confirm Inhibitors of Cancer Stem Cells. [Related pubchem assays (depositor defined):AID2717, AID2721]; format: functional; settings: Homo sapiens
# [14] = inhibitors of Vif binding to APOBEC3G peptide, primary screen, biochemical, TR-FRET, GST-Vif 1-94, biotin-A3G peptide, dose response retest (AID 1117319); format: functional;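 also: TR-FRET signal of purified GST-Vif binding a biotinylated A3G peptide; inhibitors lower the FRET signal by blocking Vif and A3G binding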
# [15] = Vero cell cytotoxicity, dose response, cytotoxicity control for Vif-APOBEC3G degradation inhibitor project, Vero cells (AID 1117358); format: functional; settings: Human immunodeficiency virus 1, Vero
# HeLa = assay: HeLa cell cytotoxicity, dose response, cytotoxicity control for MITF activator project, CellTiter-Glo luminescence, cherry-pick samples (AID 540259); format: functional, cell-based; settings: Homo sapiens
# [16] = target: T2, Hepatocyte nuclear factor 4-alpha (Homo sapiens, UniProt P41235); format: functional, cell-based;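 also: biochemical luminescence-based dose-response counterscreen measuring inhibition of HNF4 dimerization, run alongside a screen for blockers of ABHD5–perilipin-5 interaction; split luciferase complementation of HNF4 fusion proteins in cell lysate measuring dimerization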
# T2 sequence (P41235 whole entry): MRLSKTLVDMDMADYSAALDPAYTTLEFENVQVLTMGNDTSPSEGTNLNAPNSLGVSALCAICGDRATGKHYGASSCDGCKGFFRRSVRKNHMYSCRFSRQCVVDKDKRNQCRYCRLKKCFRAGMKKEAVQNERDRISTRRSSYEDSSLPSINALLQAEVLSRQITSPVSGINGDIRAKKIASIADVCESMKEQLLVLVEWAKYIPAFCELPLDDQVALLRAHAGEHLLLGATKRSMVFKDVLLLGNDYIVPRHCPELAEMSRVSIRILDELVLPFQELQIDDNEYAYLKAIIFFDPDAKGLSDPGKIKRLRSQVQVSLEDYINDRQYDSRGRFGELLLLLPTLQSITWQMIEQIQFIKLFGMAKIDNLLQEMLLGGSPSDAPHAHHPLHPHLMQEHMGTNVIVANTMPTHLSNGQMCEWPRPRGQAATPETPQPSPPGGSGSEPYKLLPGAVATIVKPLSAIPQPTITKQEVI
# [17] = target: T3, Rac GTPase-activating protein 1 (Homo sapiens, UniProt Q9H0H5); assay: MgcRacGAP GTPase-activating activity inhibitors, confirmation, biochemical, ADP Hunter fluorescence, primary and confirmatory (AID 624330); format: functional
# T3 sequence (Q9H0H5 whole entry): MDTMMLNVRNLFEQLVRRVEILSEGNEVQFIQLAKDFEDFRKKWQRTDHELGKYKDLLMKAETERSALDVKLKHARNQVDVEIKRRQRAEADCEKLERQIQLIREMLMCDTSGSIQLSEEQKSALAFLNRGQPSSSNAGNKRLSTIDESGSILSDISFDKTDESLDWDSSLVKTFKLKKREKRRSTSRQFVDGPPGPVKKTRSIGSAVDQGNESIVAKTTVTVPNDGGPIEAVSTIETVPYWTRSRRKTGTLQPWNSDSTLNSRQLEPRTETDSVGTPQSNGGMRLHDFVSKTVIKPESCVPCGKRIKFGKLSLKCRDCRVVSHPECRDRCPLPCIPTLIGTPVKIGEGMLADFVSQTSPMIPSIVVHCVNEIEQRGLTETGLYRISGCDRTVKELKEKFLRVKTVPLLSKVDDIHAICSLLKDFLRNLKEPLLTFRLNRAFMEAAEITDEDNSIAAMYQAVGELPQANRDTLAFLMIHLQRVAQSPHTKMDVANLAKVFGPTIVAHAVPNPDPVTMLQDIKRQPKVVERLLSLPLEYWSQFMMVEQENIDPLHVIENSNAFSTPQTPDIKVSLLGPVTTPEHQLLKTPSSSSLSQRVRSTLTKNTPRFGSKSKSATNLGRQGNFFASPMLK
# Paired box protein Pax-8 = Paired box protein Pax-8 (Homo sapiens, UniProt Q06710); assay: inhibitors of PAX8-driven TPO luciferase reporter, dose response, RMG-I cells, cherry-pick (AID 687027); format: functional, cell-based;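 also: luciferase reporter driven by Pax8 target thyroperoxidase promoter measured by SteadyGlo luminescence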
# Chain of Paired box protein Pax-8 (Q06710 whole entry): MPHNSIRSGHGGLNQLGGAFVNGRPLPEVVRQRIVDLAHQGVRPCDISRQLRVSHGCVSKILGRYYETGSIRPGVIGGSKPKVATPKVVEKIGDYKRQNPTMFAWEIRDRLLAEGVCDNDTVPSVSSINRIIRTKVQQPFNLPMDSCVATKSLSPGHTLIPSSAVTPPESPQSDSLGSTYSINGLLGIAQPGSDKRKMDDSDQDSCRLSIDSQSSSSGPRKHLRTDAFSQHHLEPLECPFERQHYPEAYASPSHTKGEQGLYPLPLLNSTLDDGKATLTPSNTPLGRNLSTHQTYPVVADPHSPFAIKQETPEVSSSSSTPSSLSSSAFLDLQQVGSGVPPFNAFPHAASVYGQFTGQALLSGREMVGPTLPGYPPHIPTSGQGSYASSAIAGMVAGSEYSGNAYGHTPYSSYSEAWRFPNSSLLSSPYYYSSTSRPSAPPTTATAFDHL
# [18] = A2780 ovarian cancer cell cytotoxicity, dose response, cytotoxicity control, plate reader, dry powder samples (AID 743046); format: functional, cell-based
# [19] = cytotoxicity in OVCAR8 ovarian cancer cells, dose response, PAX8 project, cell-based, plate reader, dry powder samples (AID 743197); format: functional; settings: OVCAR-8
# cells [20] = format: functional, cell-based
# [21] = target: T4, Trace amine-associated receptor 1 (Homo sapiens, UniProt Q96RJ0); assay: Fluorescence-based cell-based high throughput dose response assay to identify agonists of the human trace amine associated receptor 1 (TAAR1).; format: functional
# T4 sequence (Q96RJ0 whole entry): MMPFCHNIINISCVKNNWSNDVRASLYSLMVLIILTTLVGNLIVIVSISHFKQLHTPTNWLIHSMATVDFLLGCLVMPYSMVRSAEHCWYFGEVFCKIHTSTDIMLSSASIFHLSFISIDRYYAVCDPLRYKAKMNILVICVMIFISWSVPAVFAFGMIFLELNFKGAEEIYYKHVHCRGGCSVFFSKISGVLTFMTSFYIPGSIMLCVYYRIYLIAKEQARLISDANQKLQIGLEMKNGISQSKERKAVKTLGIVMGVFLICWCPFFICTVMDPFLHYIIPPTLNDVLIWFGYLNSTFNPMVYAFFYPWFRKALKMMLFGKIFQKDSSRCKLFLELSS
# [22] = target: T4, Trace amine-associated receptor 1; assay: Counterscreen for agonists of the human trace amine associated receptor 1 (hTAAR1): Fluorescence-based cell-based high throughput dose response assay to identify hTAAR1 agonist that also desensitize TAAR1 receptor response.; format: functional
# cells [23] = format: functional, cell-based; remark: listed apart in the source
# [24] = P. falciparum Dd2 growth inhibitors, dose response, SYBR Green, cherry-picked samples (AID 1159567); format: functional, cell-based
# [25] = growth suppression of PTEN-null colon cells, dose response, cell-based, HCT116 PTEN knockout (AID 1047); format: functional;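 also: HCT116 colon tumor cells with PTEN knocked out; cells exposed to compound for 60 hours before readout; potency for loss of cell viability measured by luminescence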
# [26] = growth suppression of beta-catenin-knockout colon cells, dose response, cell-based, HCT116, human colon tumor (AID 1045); format: functional;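 also: HCT116 colon tumor cells with beta catenin knocked out; cells exposed to compound for 60 hours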
# [27] = target: T5, Ubiquitin-conjugating enzyme E2 N (Homo sapiens, UniProt P61088); format: functional;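 also: Dose-response confirmation in a TR-FRET assay detecting UBC13-driven polyubiquitin chain formation, inhibition measured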
# T5 sequence (P61088 whole entry): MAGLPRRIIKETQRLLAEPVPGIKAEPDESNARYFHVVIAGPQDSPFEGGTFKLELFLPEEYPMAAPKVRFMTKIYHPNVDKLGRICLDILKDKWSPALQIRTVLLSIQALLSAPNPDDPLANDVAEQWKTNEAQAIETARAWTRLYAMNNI
# INS1 = assay: beta cell apoptosis inhibitors, cytokine rescue, dose response, luminescence, retest (AID 449756); format: functional, cell-based; settings: Rattus norvegicus;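 also: cell death triggered by IL-1 beta plus TNF-alpha plus IFN-gamma mixture; protective hits raise ATP signal compared with cytokine alone wells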
# [28] = Shn3 3'UTR reporter inhibitors, dose response, cell-based, Clone20 osteoblasts, firefly luciferase, cherry-picked (AID 624132); format: functional;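 also: firefly luciferase luminescence from reporter carrying the Shn3 3'UTR in osteoblasts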
# [29] = HepG2 cell cytotoxicity, dose response, cytotoxicity control for Shn3 inhibitor project, CellTiter-Glo, cherry-picked (AID 624134); format: functional, cell-based
# [30] = control 3'UTR Renilla luciferase suppression, dose response, counter-screen for Shn3 inhibitor project, cell-based, Clone20-Shn3RL, cherry-picked (AID 624133); format: functional
compound,measurement,setting,value
O=C(O)c1ccccc1C(=O)c1ccc(Sc2ccc(Cl)cc2)c([N+](=O)[O-])c1,EC50,BJ [1],> 150 µM (not active)
same,EC50,BJ [2],> 150 µM (not active)
same,EC50,BJ [3],> 150 µM (not active)
same,EC50,[4],> 150 µM (not active)
same,IC50,HEK293,> 67.5 µM (inactive)
same,IC50,Genome polyprotein,35.1 µM (active)
same,IC50,[5],> 67.5 µM (inactive)
O=C(NCc1ccco1)c1ccc(Cn2c(=O)c3ccccc3n(Cc3cccc(F)c3)c2=O)cc1,EC50,[6],15.1 µM (active)
same,EC50,[7],> 120 µM (not active)
same,EC50,[8],41.4 µM (active)
same,AC50,[9],2.17 µM (active)
same,AC50,[10],5.5 µM (active)
same,AC50,[11],3.52 µM (active)
COc1cc(OCC(=O)NC(C)C)cc2c1C(=O)O[C@@H](C)CCCC(=O)CCCCC2,AC50,[9],6.38 µM (active)
same,AC50,[10],6.68 µM (active)
same,AC50,[11],10.5 µM (active)
same,AC50,[12],26.4 µM (active)
Cn1nc(-c2ccc(Cl)cc2)c2cc(C(=O)NCCCN3CCOCC3)sc21,AC50,[13],2.03 µM (active)
same,IC50,[14],> 100 µM (active)
same,CC50,[15],> 40 µM (active)
CN1CCSc2ccc(C(=O)Nc3cc(F)ccc3F)cc21,IC50,HEK293,> 67.5 µM (inactive)
same,IC50,[5],> 67.5 µM (inactive)
same,AC50,HeLa,44.2 µM (active)
O=C(/C(=C/c1ccccc1)n1cncn1)c1ccc(Cl)cc1Cl,IC50,[16],3.22 µM (active)
same,IC50,[17],150 µM (active)
CCOC(=O)CSc1nc2cc3c(cc2cc1C#N)OCCO3,IC50,HEK293,> 67.5 µM (inactive)
same,IC50,[5],> 67.5 µM (inactive)
O=C(CC(O)CCc1ccccc1)c1ccc(O)cc1 (configuration not stated),IC50,HEK293,> 67.5 µM (inactive)
same,IC50,[5],> 67.5 µM (inactive)
C[C@@H]1CN([C@H](C)CO)C(=O)c2cc(NC(=O)Nc3ccc(F)cc3)ccc2O[C@@H](C)CCCCO[C@H]1CN(C)S(=O)(=O)c1ccc(Cl)cc1,AC50,Paired box protein Pax-8,6.11 µM (active)
same,AC50,[18],5.81 µM (active)
same,AC50,[19],> 70 µM (inactive)
O=c1c(-c2ccco2)nc2ccccc2n1C(CCc1ccccc1)c1nc2ccccc2[nH]1 (configuration not stated),IC50,[16],2.54 µM (active)
CC(C)(C)NC(=O)C(c1ccncc1)n1c(=O)c(-c2ccco2)nc2ccccc21 (configuration not stated),IC50,[16],8.03 µM (active)
O=C(N[C@H](C(=O)N1CCC[C@H]1C(=O)NCCc1ccccc1Cl)C1CCCCC1)C1CC1,IC50,cells [20],> 29.9 µM (inactive)
same,EC50,[21],12.1 µM (inactive)
same,IC50,[22],8.99 µM (active)
same,EC50,cells [23],> 29.9 µM (inactive)
COc1ncnc2c1ncn2CCCNCC(C)c1ccccc1 (configuration not stated),IC50,cells [20],> 29.9 µM (inactive)
same,EC50,[21],3.84 µM (active)
same,IC50,[22],12.8 µM (inactive)
same,EC50,cells [23],> 29.9 µM (inactive)
CO[C@@H]1CN(C)C(=O)c2cc(NC(=O)c3nc4ccccc4s3)ccc2OC[C@H](C)NC[C@H]1C,AC50,[18],0.437 µM (active)
same,AC50,[24],10 µM (active)
Cn1nc(-c2ccc(Cl)cc2)c2cc(C(=O)NCCN3CCOCC3)sc21,EC50,[25],22.4 µM (active)
same,EC50,[26],17 µM (active)
same,IC50,HEK293,> 67.5 µM (inactive)
same,IC50,[5],> 67.5 µM (inactive)
COc1ccc(Nc2nc(N3CCCC3)c3ccccc3n2)cc1,IC50,[27],> 20 µM (inactive)
same,AC50,INS1,3.07 µM (active)
same,AC50,[28],3.67 µM (active)
same,AC50,[29],8.46 µM (active)
same,AC50,[30],5.37 µM (active)
same,IC50,cells [20],19.7 µM (inactive)
same,EC50,[21],> 3.32 µM (active)
same,IC50,[22],7.19 µM (active)
same,EC50,cells [23],> 29.9 µM (inactive)
